Data as given in the CheMixHub viscosity set.

Assay: xn = mol fraction of the nth substance listed

NCCCC[C@H](N)C(=O)[O-].[K+] + O
viscosity [mPa·s]
Conditions	293.15 K	298.15 K	303.15 K	308.15 K	313.15 K	318.15 K	323.15 K
100 kPa, x1 = 0.01	–	1.138	–	–	–	–	–
100 kPa, x1 = 0.02	–	1.642	–	–	–	–	–
101.3 kPa, x1 = 0.00479	1.183	1.051	0.9411	0.847	0.7675	0.7007	0.6435
101.3 kPa, x1 = 0.00923	1.393	1.226	1.092	0.9834	0.8868	0.8069	0.7376
101.3 kPa, x1 = 0.015	1.599	1.408	1.251	1.12	1.01	0.916	0.8358
101.3 kPa, x1 = 0.01985	1.92	1.683	1.49	1.328	1.194	1.077	0.9784
101.3 kPa, x1 = 0.03254	2.783	2.408	2.108	1.861	1.655	1.483	1.337
101.3 kPa, x1 = 0.0375	2.961	2.59	2.233	1.989	1.744	1.577	1.404
101.3 kPa, x1 = 0.0395	–	–	1.868	–	1.448	–	1.128
101.3 kPa, x1 = 0.04425	4.174	–	3.071	–	2.351	2.094	1.872
101.3 kPa, x1 = 0.0501	4.177	3.576	3.074	2.687	2.353	2.092	1.861
101.3 kPa, x1 = 0.0595	–	–	3.237	–	2.45	–	1.863
101.3 kPa, x1 = 0.06157	6.645	5.544	4.71	4.049	3.517	3.081	2.722
101.3 kPa, x1 = 0.0617	5.683	4.806	4.086	3.537	3.072	2.71	2.394
101.3 kPa, x1 = 0.0705	7.066	5.922	4.999	4.299	3.709	3.251	2.858
101.3 kPa, x1 = 0.0741	7.638	6.379	5.359	4.594	3.949	3.453	3.025
101.3 kPa, x1 = 0.0855	–	–	4.606	–	3.452	–	2.598
